According to US20240270759A1, “Preparation of SHP2 phosphatase inhibitors and its applications” (Ya Therapeutics Inc, priority 2021, published 2024):

Target: T1, SHP2 full-length protein (Homo sapiens, UniProt Q06124)
T1 construct: purchased BPS Bioscience #79330
T1 sequence (Q06124 1-593): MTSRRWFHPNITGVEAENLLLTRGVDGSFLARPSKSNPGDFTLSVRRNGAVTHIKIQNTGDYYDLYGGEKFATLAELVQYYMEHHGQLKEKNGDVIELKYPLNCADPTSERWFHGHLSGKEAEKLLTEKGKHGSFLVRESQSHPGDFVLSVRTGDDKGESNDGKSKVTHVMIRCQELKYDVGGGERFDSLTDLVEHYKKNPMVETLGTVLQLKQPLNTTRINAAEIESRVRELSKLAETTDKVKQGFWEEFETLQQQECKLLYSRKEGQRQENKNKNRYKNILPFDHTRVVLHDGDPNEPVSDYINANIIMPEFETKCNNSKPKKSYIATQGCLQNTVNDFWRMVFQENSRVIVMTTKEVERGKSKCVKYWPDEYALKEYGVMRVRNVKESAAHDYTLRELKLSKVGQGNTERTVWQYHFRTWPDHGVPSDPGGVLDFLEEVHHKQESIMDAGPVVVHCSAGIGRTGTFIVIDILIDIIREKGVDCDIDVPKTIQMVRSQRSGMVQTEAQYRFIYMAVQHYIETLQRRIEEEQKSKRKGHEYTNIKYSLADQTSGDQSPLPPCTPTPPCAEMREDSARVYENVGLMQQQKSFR
Test: SHP2 allosteric inhibition experiment (Homogeneous Full Length SHP-2 Assay Kit)
Assay type: biochemical
Settings: full-length SHP2 0.06 nM with SHP-2 activating peptide; ten-point, 1 μM to 0.05 nM; read-out: IC50 Values of Compounds Inhibiting SHP2

| Compound | IC50 [nM] |
| --- | --- |
| Nc1nccc(-n2c(=O)[nH]c3nc(N4CCC5(CC4)Cc4ccccc4[C@H]5N)cnc3c2=O)c1Cl [Compound 18, (S)-7-(1-amino-1,3-dihydrospiro[indene-2,4′-piperidine]-1′-yl)-3-(2-amino-3-chloropyridine-4-yl)pteridine-2,4(1H,3H)-dione] | ≤ 10 |
| Nc1nccc(-n2c(=O)[nH]c3nc(N4CCC5(CC4)Cc4ccncc4[C@H]5N)cnc3c2=O)c1Cl [Compound 21, (S)-3-(2-amino-3-chloropyridine-4-yl)-7-(7-amino-5,7-dihydrospiro[cyclopenta[c]pyridine-6,4′-piperidine]-1′-yl)pteridine-2,4(1H,3H)-dione] | ≤ 10 |
| NC1c2ncccc2CC12CCN(c1ccc3c(=O)n(-c4cccc(Cl)c4Cl)c(=O)[nH]c3c1)CC2 (stereo in doubt) [Compound 8, (S)-7-(7-Amino-5,7-dihydrospiro[cyclopenta[b]pyridine-6,4′-piperidine]-1′-yl)-3-(2,3-dichlorophenyl)quinazoline-2,4(1H,3H)-dione] | ≤ 10 |
| C[C@@H]1OCC2(CCN(c3ncc(Sc4cccc(-c5ccn(C)n5)c4Cl)cn3)CC2)[C@@H]1N [Compound 111, (3S,4S)-8-(5-((2-chloro-3-(1-methyl-1H-pyrazole-3-yl)phenyl)mercapto)pyrimidine-2-yl)-3-methyl-2-oxa-8-azaspiro[4.5]decane-4-amine] | 10 to 100 |
| CC(C)n1ccc(-c2cccc(Sc3cnc(N4CCC5(CC4)CO[C@@H](C)[C@H]5N)nc3)c2Cl)n1 [Compound 113, (3S,4S)-8-(5-((2-chloro-3-(1-isopropyl-1H-pyrazole-3-yl)phenyl)mercapto)pyrimidine-2-yl)-3-methyl-2-oxa-8-azaspiro[4.5]decane-4-amine] | 10 to 100 |
| C[C@@H]1OCC2(CCN(c3ncc(Sc4cccc(-c5cccnc5)c4Cl)cn3)CC2)[C@@H]1N [Compound 117, (3S,4S)-8-(5-((2-chloro-3-(pyridine-3-yl)phenyl)mercapto)pyrimidine-2-yl)-3-methyl-2-oxa-8-azaspiro[4.5]decane-4-amine] | ≤ 10 |
| C[C@@H]1OCC2(CCN(c3ccc4nc(Sc5cccc(-c6cnccn6)c5Cl)ncc4n3)CC2)[C@@H]1N [Compound 74, (3S,4S)-8-(2-((2-chloro-3-(pyrazine-2-yl)phenyl)mercapto)pyridinyl[3,2-d]pyrimidine-6-yl)-3-methyl-2-oxa-8-azaspiro[4.5]decane-4-amine] | ≤ 10 |
| C[C@@H]1OCC2(CCN(c3ccc4nc(Sc5cccc(-c6ccn(C)n6)c5Cl)cnc4n3)CC2)[C@@H]1N [Compound 91, (3S,4S)-8-(2-((2-chloro-3-(1-methyl-1H-pyrazole-3-yl)phenyl)mercapto)pyridinyl[2,3-b]pyrazine-6-yl)-3-methyl-2-oxa-8-azaspiro[4.5]decane-4-amine] | ≤ 10 |
| N[C@@H]1c2cnccc2CC12CCN(c1cnc3c(=O)n(-c4cccc(Cl)c4Cl)c(=O)[nH]c3n1)CC2 [Compound 16, (S)-7-(7-Amino-5,7-dihydrospiro [cyclopenta[c]pyridine-6,4′-piperidine]-1′-yl)-3-(2,3-dichlorophenyl)pteridine-2,4(1H,3H)-dione] | 10 to 100 |
| C[C@@H]1OCC2(CCN(c3cnc4nc(Sc5cccc(-c6cnccn6)c5Cl)ncc4n3)CC2)[C@@H]1N [Compound 72, (3S,4S)-8-(2-((2-chloro-3-(pyrazine-2-yl)phenyl)mercapto)pteridine-6-yl)-3-methyl-2-oxa-8-azaspiro[4.5]decane-4-amine] | ≤ 10 |
| C[C@@H]1OCC2(CCN(c3ccc4nc(Sc5cccc(-c6ccncn6)c5Cl)ncc4n3)CC2)[C@@H]1N [Compound 77, (3S,4S)-8-(2-((2-chloro-3-(pyrimidine-4-yl)phenyl)mercapto)pyridinyl[3,2-d]pyrimidine-6-yl)-3-methyl-2-oxa-8-azaspiro[4.5]decane-4-amine] | ≤ 10 |
| C[C@@H]1OCC2(CCN(c3ncc(Sc4cccc(-c5cncnc5)c4Cl)cn3)CC2)[C@@H]1N [Compound 115, (3S,4S)-8-(5-((2-chloro-3-(pyrimidine-5-yl)phenyl)mercapto)pyrimidine-2-yl)-3-methyl-2-oxa-8-azaspiro[4.5]decane-4-amine] | ≤ 10 |
